Consider 20 molecules from patent publication US20170096422A1, “HETEROCYCLIC COMPOUND” (Takeda Pharmaceutical Company Limited, priority 2014, published 2017).

The structures appear in SMILES notation.

For one experiment, the target named is PKC θ (Homo sapiens, UniProt Q04759). The experiment in a line: PKC θ enzyme inhibition test (TR-FRET). To be noted: 1 μM test compound, well without enzyme = 100% inhibition. Format: biochemical. How it is done: PKC θ enzyme inhibitory activities of test compounds were measured by TR-FRET method. First, a test compound diluted with assay buffer (20 mM Tris-HCl (pH 7.5), 5 mM MgAcetate, 0.1 mM CaCl2, 1 mM DTT, 0.01% Tween20, 0.05% BSA, 10% PKC Activator (Millipore)) was added to 384-well plate at 2 μL each. Then, a solution diluted with assay buffer to […] of PKC θ and 1.2 μM of a fluorescence-labeled peptide substrate (Fluorescein-PKC Substrate, Life Technologies) was added by 2 μL. Then, enzyme reaction was started by adding 2 μL each of ATP solution prepared with assay buffer to 60 μM. After the reaction at room temperature for 1 hr, TR-FRET Dilution Buffer (Life Technologies) prepared to 20 mM EDTA, 0.6 nM terbium-labeled anti-phosphoserine antibody (Life Technologies) was added by 6 μL. After standing at room temperature for 1 hr, fluorescence intensity (excitation wavelength 340 nm, fluorescence wavelength 520 nm, delay time 100 microseconds) was measured by a plate reader, Envision (PerkinElmer). The inhibitory activity of each compound was calculated as relative activity value where fluorescence intensity of a well without enzyme is considered as 100% inhibition.
PKC θ, sequence (Q04759 whole entry): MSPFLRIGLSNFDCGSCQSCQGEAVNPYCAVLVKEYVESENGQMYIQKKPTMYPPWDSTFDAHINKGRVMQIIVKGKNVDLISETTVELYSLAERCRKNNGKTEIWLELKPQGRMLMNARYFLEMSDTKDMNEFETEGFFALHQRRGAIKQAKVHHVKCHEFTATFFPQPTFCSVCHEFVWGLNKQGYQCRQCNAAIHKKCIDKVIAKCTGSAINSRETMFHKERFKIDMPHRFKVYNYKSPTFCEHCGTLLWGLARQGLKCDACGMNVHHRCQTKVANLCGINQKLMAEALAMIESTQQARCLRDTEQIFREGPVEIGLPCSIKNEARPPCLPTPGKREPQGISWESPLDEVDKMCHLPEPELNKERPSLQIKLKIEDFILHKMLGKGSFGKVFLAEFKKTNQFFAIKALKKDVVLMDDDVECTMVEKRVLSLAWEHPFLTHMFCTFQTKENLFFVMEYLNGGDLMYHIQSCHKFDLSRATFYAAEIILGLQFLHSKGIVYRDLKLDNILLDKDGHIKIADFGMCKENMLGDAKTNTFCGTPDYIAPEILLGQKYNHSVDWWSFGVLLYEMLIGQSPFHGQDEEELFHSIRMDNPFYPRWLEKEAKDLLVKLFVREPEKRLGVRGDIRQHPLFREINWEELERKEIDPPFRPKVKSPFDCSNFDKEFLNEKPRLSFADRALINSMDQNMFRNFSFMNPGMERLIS
In the case of `CCOc1ccnc2[nH]c(=O)n(-c3ccc4ncc(CC)n4n3)c12` [Example 12, 7-ethoxy-1-(3-ethylimidazo[1,2b]pyridazin-6-yl)-1,3-dihydro-2H-imidazo[4,5-b]pyridin-2-one], the “PKC θ inhibitory activity (%, 1 μM)” value is 91%.

The experiment is the same for the next values; noted with them: 1 μM test compound, well without enzyme = 100% inhibition, read-out: PKC θ inhibitory activity (%, 1 μM).
Consider `CCOc1ccnc2[nH]c(=O)n(-c3ccc4[nH]nc(C)c4c3)c12` [Example 18, 7-ethoxy-1-(3-methyl-1H-indazol-5-yl)-1,3-dihydro-2H-imidazo[4,5-b]pyridin-2-one], for which the inhibition at 1 µM turned out to be 97%.

On to `CCOc1ccnc2[nH]c(=O)n(-c3cc4c5c(cnc4cc3F)OCCO5)c12` [Example 94, 7-ethoxy-1-(8-fluoro-2,3-dihydro[1,4]dioxino[2,3-c]quinolin-9-yl)-1,3-dihydro-2H-imidazo[4,5-b]pyridin-2-one], for which the inhibition at 1 µM was found to be 101%.

For `CCOc1ccnc2[nH]c(=O)n(-c3ccc4nccc(N5CCNCC5)c4c3)c12` [Example 92, 7-ethoxy-1-(4-(piperazin-1-yl)quinolin-6-yl)-1,3-dihydro-2H-imidazo[4,5-b]pyridin-2-one], the inhibition at 1 µM was found to be 102%.

Take `CCOc1ccnc2[nH]c(=O)n(-c3ccc4occ(C)c4c3)c12` [Example 15, 7-ethoxy-1-(3-methyl-1-benzo-furan-5-yl)-1,3-dihydro-2H-imidazo[4,5-b]pyridin-2-one]: the inhibition at 1 µM is 99%.

As for `CCOc1ccnc2[nH]c(=O)n(-c3ccn4ncc(CC)c4c3)c12` [Example 17, 7-ethoxy-1-(3-ethylpyrazolo[1,5-a]pyridin-5-yl)-1,3-dihydro-2H-imidazo[4,5-b]pyridin-2-one], the inhibition at 1 µM turned out to be 100%.

`CCOc1ccnc2[nH]c(=O)n(-c3ccc4nccc(OC)c4n3)c12` [Example 55, 7-ethoxy-1-(8-methoxy-1,5-naphthyridin-2-yl)-1,3-dihydro-2H-imidazo[4,5-b]pyridin-2-one]: the inhibition at 1 µM was found to be 124%.

For the molecule `CCOc1ccnc2[nH]c(=O)n(-c3ccc4ncc(CC)n4c3)c12` [Example 11, 7-ethoxy-1-(3-ethylimidazo[1,2-a]pyridin-6-yl)-1,3-dihydro-2H-imidazo[4,5-b]pyridin-2-one], the inhibition at 1 µM amounted to 96%.

As to `CCOc1ccnc2[nH]c(=O)n(-c3ccc4ncc(-c5cn[nH]c5)c(OC)c4c3)c12` [Example 185, 7-ethoxy-1-(4-methoxy-3-(1H-pyrazol-4-yl)quinolin-6-yl)-1,3-dihydro-2H-imidazo[4,5-b]pyridin-2-one], the inhibition at 1 µM came to 101%.

Take `CCOc1ccnc2[nH]c(=O)n(-c3ccc4ncn(C)c4n3)c12` [Example 13, 7-ethoxy-3′-methyl-3′H-1,5′-biimidazo[4,5-b]pyridin-2(3H)-one]: the inhibition at 1 µM is 90%.

With `CCOc1ccnc2[nH]c(=O)n(-c3ccc4nccc(C(N)=O)c4c3)c12` [Example 27, 6-(7-ethoxy-2-oxo-2,3-dihydro-1H-imidazo[4,5-b]pyridin-1-yl)quinoline-4-carboxamide], the inhibition at 1 µM was determined as 90%.

As to `CCOc1ccnc2[nH]c(=O)n(-c3ccc4ncn(C)c4c3)c12` [Example 7, 7-ethoxy-1-(1-methyl-1H-benzimidazol-6-yl)-1,3-dihydro-2H-imidazo[4,5-b]pyridin-2-one], the inhibition at 1 µM amounted to 100%.

On to `CCOc1ccnc2[nH]c(=O)n(-c3ccc4ncc5c(c4c3)OCCO5)c12` [Example 75, 1-(2,3-dihydro[1,4]-dioxino[2,3-c]quinolin-9-yl)-7-ethoxy-1,3-dihydro-2H-imidazo[4,5-b]pyridin-2-one], for which the inhibition at 1 µM was 101%.

On to `CCOc1ccnc2[nH]c(=O)n(-c3ccc4ncc(F)c(OC)c4c3)c12` [Example 230, 7-ethoxy-1-(3-fluoro-4-methoxyquinolin-6-yl)-1,3-dihydro-2H-imidazo[4,5-b]pyridin-2-one], for which the inhibition at 1 µM stood at 102%.

Consider `CCOc1ccnc2[nH]c(=O)n(-c3ccc4ncnc(OC)c4c3)c12` [Example 39, 7-ethoxy-1-(4-methoxyquinazolin-6-yl)-1,3-dihydro-2H-imidazo[4,5-b]pyridin-2-one], for which the inhibition at 1 µM amounted to 102%.

Consider `CCOc1ccnc2[nH]c(=O)n(-c3ccc4nccc(OC)c4c3)c12` [Example 41, 7-ethoxy-1-(4-methoxyquinolin-6-yl)-1,3-dihydro-2H-imidazo[4,5-b]pyridin-2-one], for which the inhibition at 1 µM stood at 97%.

Consider `CCOc1ccnc2[nH]c(=O)n(-c3ccc4ncc(-c5cnn(C)c5)c(OC)c4c3)c12` [Example 177, 7-ethoxy-1-(4-methoxy-3-(1-methyl-1H-pyrazol-4-yl)quinolin-6-yl)-1,3-dihydro-2H-imidazo[4,5-b]pyridin-2-one], for which the inhibition at 1 µM stood at 100%.

On to `CCOc1cnc2ccc(-n3c(=O)[nH]c4nccc(OCC)c43)cc2n1` [Example 93, 7-ethoxy-1-(3-ethoxyquinoxalin-6-yl)-1,3-dihydro-2H-imidazo[4,5-b]pyridin-2-one], for which the inhibition at 1 µM was determined as 94%.

Take `CCOc1ccnc2[nH]c(=O)n(-c3ccc4nncc(OC)c4c3)c12` [Example 60, 7-ethoxy-1-(4-methoxycinnolin-6-yl)-1,3-dihydro-2H-imidazo[4,5-b]pyridin-2-one]: the inhibition at 1 µM was determined as 101%.

Take `COc1cnnc2ccc(-n3c(=O)[nH]c4nccc(OC5CCC5)c43)cc12` [Example 204, 7-(cyclobutyloxy)-1-(4-methoxycinnolin-6-yl)-1,3-dihydro-2H-imidazo[4,5-b]pyridin-2-one]: the inhibition at 1 µM is 101%.
